Results taken from patent US20200237766A1, “PKM2 ACTIVATORS IN COMBINATION WITH REACTIVE OXYGEN SPECIES FOR TREATMENT OF CANCER” (TOLERO PHARMACEUTICALS, INC., priority 2017, published 2020).
Like-named read-outs stand apart in the source and are kept apart here.

Molecular target: PKM2 (Homo sapiens, UniProt P14618)
Assay: PKM2 activation biochemical assay (AC50 / max. response vs fructose 1,6-bisphosphate)
Settings: for Max. Resp. (%): % maximum response in a biochemical assay as compared with Fructose 1,6-bisphosphate
[1] = biochemical assay, read-out: PKM2 AC50

Chain of PKM2 (P14618 whole entry): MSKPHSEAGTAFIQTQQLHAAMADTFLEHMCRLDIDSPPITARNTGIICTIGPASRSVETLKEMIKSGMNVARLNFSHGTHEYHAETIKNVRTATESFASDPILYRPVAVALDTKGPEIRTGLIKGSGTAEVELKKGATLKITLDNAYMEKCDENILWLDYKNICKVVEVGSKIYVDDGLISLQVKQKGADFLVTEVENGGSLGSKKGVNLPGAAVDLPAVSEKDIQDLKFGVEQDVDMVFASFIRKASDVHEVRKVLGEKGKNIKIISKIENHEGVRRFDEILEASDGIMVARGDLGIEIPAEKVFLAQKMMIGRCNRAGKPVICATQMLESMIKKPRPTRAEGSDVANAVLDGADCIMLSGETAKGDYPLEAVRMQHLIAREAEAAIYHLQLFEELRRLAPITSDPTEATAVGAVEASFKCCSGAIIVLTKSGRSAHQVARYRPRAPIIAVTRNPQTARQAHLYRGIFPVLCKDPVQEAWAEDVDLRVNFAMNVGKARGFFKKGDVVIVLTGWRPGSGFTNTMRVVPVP

`CCN(CC)CCN(Cc1ccc(O)cc1F)C(=O)c1cc(C(F)(F)F)n[nH]1` [Compound 143] was tested, and the “Max. Resp. (%)” value was 100% and the AC50 [1] was 108 nM.

`O=C(c1cc(C(F)(F)F)n[nH]1)N(Cc1cn[nH]c1)Cc1cccc2[nH]cnc12` [Compound 144] gave an AC50 [1] of 25000 nM.

In the case of `NCc1ccccc1CN(CC1CCC1)C(=O)c1cc(C(F)(F)F)n[nH]1` [Compound 145], the AC50 [1] is reported as 25500 nM.

`CCN(CC)CCN(Cc1ccccc1F)C(=O)c1cc(C(F)(F)F)n[nH]1` [Compound 148] was tested, and the AC50 was 505 nM and the “Max. Resp. (%)” value was 100%.

`O=C(c1cc(C(F)(F)F)n[nH]1)N(CCC1CC1)Cc1ccccc1F` [Compound 149] was tested, and the “Max. Resp. (%)” value was 100% and the AC50 [1] was 2000 nM.

With `O=C(c1cc(C(F)(F)F)n[nH]1)N(Cc1ccccc1F)CC1CCOC1` (stereo not drawn) [Compound 150] the “Max. Resp. (%)” value was 68% and the AC50 [1] was 16000 nM.

For `CCN1CCC(N(Cc2ccccc2F)C(=O)c2cc(C(F)(F)F)n[nH]2)C1` (stereo not drawn) [Compound 152], the “Max. Resp. (%)” value was 68% and the AC50 [1] was 13500 nM.

For `O=C(c1cc(C(F)(F)F)n[nH]1)N(Cc1ccccc1F)C1CCCCC1` [Compound 153], the “Max. Resp. (%)” value was 57% and the AC50 [1] was 19000 nM.

`CCN(CC)CCN(Cc1cccc(N)c1)C(=O)c1cc(C(F)(F)F)n[nH]1` [Compound 154] was tested, and the “Max. Resp. (%)” value was 100% and the AC50 [1] was 1430 nM.

`CCNCCN(Cc1ccccc1F)C(=O)c1cc(C(F)(F)F)n[nH]1` [Compound 155] was tested, and the “Max. Resp. (%)” value was 100% and the AC50 [1] was 2150 nM.

For `O=C(c1cc(C(F)(F)F)n[nH]1)N(CCN1CCCC1)Cc1ccccc1F` [Compound 158], the “Max. Resp. (%)” value was 100% and the AC50 [1] was 265 nM.

`CCN(CC)CCN(Cc1ccccc1Cl)C(=O)c1cc(C(F)(F)F)n[nH]1` [Compound 159] was tested, and the “Max. Resp. (%)” value was 100% and the AC50 [1] was 73 nM.

For `CCN(CC)CCN(Cc1cccc2[nH]cnc12)C(=O)c1cc(C(F)(F)F)n[nH]1` [Compound 160], the “Max. Resp. (%)” value was 100% and the AC50 [1] was 825 nM.

For `CCN(CC)CCN(Cc1cccc2[nH]ccc12)C(=O)c1cc(C(F)(F)F)n[nH]1` [Compound 161], the “Max. Resp. (%)” value was 100% and the AC50 [1] was 76 nM.

With `O=C(c1cc(C(F)(F)F)n[nH]1)N(CCN1CCCC1)Cc1ccccc1Cl` [Compound 162] the AC50 was 107 nM and the “Max. Resp. (%)” value was 100%.

`O=C(c1cc(C(F)(F)F)n[nH]1)N(CCN1CCCC1)Cc1cccc2nc[nH]c12` [Compound 163] was tested, and the “Max. Resp. (%)” value was 100% and the AC50 [1] was 1080 nM.

With `O=C(c1cc(C(F)(F)F)n[nH]1)N(CCN1CCCC1)Cc1cccc2[nH]ccc12` [Compound 164] the “Max. Resp. (%)” value was 100% and the AC50 [1] was 113 nM.

For `O=C(c1cc(C(F)(F)F)n[nH]1)N(CCN1CCCC1)Cc1ccc(Cl)cc1Cl` [Compound 165], the “Max. Resp. (%)” value was 50% and the AC50 [1] was 45000 nM.

`CCN(CC)CCN(Cc1cccc(Cl)c1Cl)C(=O)c1cc(C(F)(F)F)n[nH]1` [Compound 167] was tested, and the “Max. Resp. (%)” value was 100% and the AC50 [1] was 186 nM.

In the case of `CCN(CC)CCN(Cc1cc(Cl)ccc1Cl)C(=O)c1cc(C(F)(F)F)n[nH]1` [Compound 168], the “Max. Resp. (%)” value is reported as 100% and the AC50 [1] is reported as 97 nM.

With `CCN(CC)CCN(Cc1c(Cl)cccc1Cl)C(=O)c1cc(C(F)(F)F)n[nH]1` [Compound 169] the “Max. Resp. (%)” value was 100% and the AC50 [1] was 66 nM.

In the case of `CCN(CC)CCN(Cc1ccc(F)cc1Cl)C(=O)c1cc(C(F)(F)F)n[nH]1` [Compound 170], the AC50 is reported as 505 nM and the “Max. Resp. (%)” value is reported as 100%.

In the case of `CCN(CC)CCN(Cc1cc(F)ccc1Cl)C(=O)c1cc(C(F)(F)F)n[nH]1` [Compound 171], the AC50 is reported as 88 nM and the “Max. Resp. (%)” value is reported as 100%.

`CCN(CC)CCN(Cc1c(F)cccc1Cl)C(=O)c1cc(C(F)(F)F)n[nH]1` [Compound 172] was tested, and the “Max. Resp. (%)” value was 100% and the AC50 [1] was 94 nM.

For `O=C(c1cc(C(F)(F)F)n[nH]1)N(CCN1CCCCC1)Cc1ccccc1Cl` [Compound 173], the “Max. Resp. (%)” value was 100% and the AC50 [1] was 66 nM.

For `O=C(c1cc(C(F)(F)F)n[nH]1)N(CCN1CCOCC1)Cc1ccccc1Cl` [Compound 174], the “Max. Resp. (%)” value was 100% and the AC50 [1] was 1490 nM.

With `CCN(CC)CCN(Cc1ccccc1Cl)C(=O)c1cc(Br)n[nH]1` [Compound 175] the AC50 was 305 nM and the “Max. Resp. (%)” value was 100%.

For `O=C(c1cc(C(F)(F)F)n[nH]1)N(CCN1CCCC1)Cc1c(F)cccc1Cl` [Compound 177], the “Max. Resp. (%)” value was 100% and the AC50 [1] was 180 nM.

With `O=C(c1cc(C(F)(F)F)n[nH]1)N(CCN1CCCC1)Cc1c(Cl)cccc1Cl` [Compound 178] the “Max. Resp. (%)” value was 100% and the AC50 [1] was 126 nM.

In the case of `O=C(c1cc(C(F)(F)F)n[nH]1)N(CCN1CCCCC1)Cc1c(F)cccc1Cl` [Compound 179], the “Max. Resp. (%)” value is reported as 100% and the AC50 [1] is reported as 133 nM.

In the case of `O=C(c1cc(C(F)(F)F)n[nH]1)N(CCN1CCCCC1)Cc1c(Cl)cccc1Cl` [Compound 180], the “Max. Resp. (%)” value is reported as 100% and the AC50 [1] is reported as 154 nM.

`CC(CN(Cc1ccccc1Cl)C(=O)c1cc(C(F)(F)F)n[nH]1)N1CCCC1` (stereo not drawn) [Compound 181] was tested, and the “Max. Resp. (%)” value was 100% and the AC50 [1] was 430 nM.

`CCN(CC)CCN(Cc1cccc(F)c1Cl)C(=O)c1cc(C(F)(F)F)n[nH]1` [Compound 182] was tested, and the AC50 was 109 nM and the “Max. Resp. (%)” value was 100%.

For `CCN(CC)CCN(Cc1cc(N)ccc1Cl)C(=O)c1cc(C(F)(F)F)n[nH]1` [Compound 183], the “Max. Resp. (%)” value was 100% and the AC50 [1] was 185 nM.
